Here are results for 1 compound from publication PMC8214651, “Construction and characterization of a functional chimeric laccase from metagenomes suitable as a biocatalyst” (AMB Express, 2021).

The subject of this experiment is T1, Lcc120-3 (Mic-mg-MCO120-3).
T1 construct: 98 residues Micromonospora sp; MP36 MCO N-terminus (parent WP_148798198.1) + 387-residue metagenomic core + 54 residues MP36 MCO C-terminus; MBP deleted; E. coli BL21(DE3)
The experiment is described as follows: spectrophotometric oxidation at […] nm, Lineweaver-Burk plot. It counts as biochemical. The settings on record: 50 mM potassium phosphate pH 7.0, 30 °C, purified enzyme without MBP; read-out: Lcc120-3 (Mic-mg-MCO) / Km (mM)/Vmax (U/mg protein)/kcat (s^-1).

With `COc1cccc(OC)c1O` [DMP, 2,6-dimethoxyphenol], the Km was 10.5 mM.
